Reference: patent US12077503B2, “Substituted cyclic amides and their use as herbicides” (FMC CORPORATION, priority 2015, dated 2024)

What was measured:
Format in all cases: in vivo
[1] = tested on: ryegrass, Italian (Italian ryegrass, Lolium multiflorum); assay: Test A postemergence; conditions: Lolium multiflorum, post-emergence, 240 h, postemergence
In short: (§1)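 Preemergence soil spray on seeded pots or post-emergence spray on 1–2 leaf plants, in loam–sand blend. Greenhouse ~10 d. Visual rating 0–100 against untreated plants.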

[2] = tested on: corn (Zea mays); assay: Test A postemergence; conditions: Zea mays, post-emergence, 240 h, postemergence
In short: as §1

[3] = tested on: giant foxtail (Setaria faberii); assay: Test A postemergence; conditions: Setaria faberi, post-emergence, 240 h, postemergence
In short: as §1

[4] = tested on: ragweed (common ragweed, Ambrosia elatior); assay: Test A postemergence; conditions: Ambrosia artemisiifolia, post-emergence, 240 h, postemergence
In short: as §1

[5] = tested on: Kochia (Kochia scoparia); assay: Test A postemergence; conditions: Bassia scoparia, post-emergence, 240 h, postemergence
In short: as §1

[6] = tested on: Galium (catchweed bedstraw, Galium aparine); assay: Test A postemergence; conditions: Galium, post-emergence, 240 h, postemergence
In short: as §1

[7] = tested on: wheat (Triticum aestivum); assay: Test A postemergence; conditions: Triticum aestivum, post-emergence, 240 h, postemergence
In short: as §1

[8] = tested on: pigweed (Amaranthus retroflexus); assay: Test A postemergence; conditions: Amaranthus retroflexus, post-emergence, 240 h, postemergence
In short: as §1

[9] = tested on: ryegrass, Italian (Italian ryegrass, Lolium multiflorum); assay: Test A preemergence; conditions: Lolium multiflorum, pre-emergence, 240 h, preemergence, 0 to 100 scale where 0 is no effect and 100 is complete control, read-out: Ryegrass, Italian plant response rating
In short: as §1

[10] = tested on: giant foxtail (Setaria faberii); assay: Test A preemergence; conditions: Setaria faberi, pre-emergence, 240 h, preemergence, 0 to 100 scale where 0 is no effect and 100 is complete control, read-out: Foxtail, Giant plant response rating
In short: as §1

[11] = tested on: barnyardgrass (Echinochloa crus-galli); assay: Test A preemergence; conditions: Echinochloa crus-galli, pre-emergence, 240 h, preemergence, 0 to 100 scale where 0 is no effect and 100 is complete control, read-out: Barnyardgrass plant response rating
In short: as §1

[12] = tested on: ragweed (common ragweed, Ambrosia elatior); assay: Test A preemergence; conditions: Ambrosia artemisiifolia, pre-emergence, 240 h, preemergence, 0 to 100 scale where 0 is no effect and 100 is complete control, read-out: Ragweed plant response rating
In short: as §1

[13] = tested on: Kochia (Kochia scoparia); assay: Test A preemergence; conditions: Bassia scoparia, pre-emergence, 240 h, preemergence, 0 to 100 scale where 0 is no effect and 100 is complete control, read-out: Kochia plant response rating
In short: as §1

[14] = tested on: pigweed (Amaranthus retroflexus); assay: Test A preemergence; conditions: Amaranthus retroflexus, pre-emergence, 240 h, preemergence, 0 to 100 scale where 0 is no effect and 100 is complete control, read-out: Pigweed plant response rating
[15] = 125 g ai/ha, visual injury rating, approximately 10 d

Structure (SMILES): CN1C[C@H](c2ccc3c(c2)OC(F)(F)O3)[C@@H](C(=O)Nc2ccc(F)c(F)c2F)C1=O [Compound 1204]
- pest or weed control at 125 g/ha ([1]; 125 g ai/ha, visual injury vs untreated controls after approx. 10 d, 0 = no effect, 100 = complete control, read-out: Ryegrass, Italian plant response rating (0 to 100 scale)): 70%
- pest or weed control at 500 g/ha ([1]; 500 g ai/ha, 0 to 100 scale, 0 is no effect, 100 is complete control, read-out: Ryegrass, Italian plant response rating): 80%
- plant injury at 125 g/ha ([2]; 125 g ai/ha, visual injury vs untreated controls after approx. 10 d, 0 = no effect, 100 = complete control, read-out: Corn plant response rating (0 to 100 scale)): 70%
- plant injury at 500 g/ha ([2]; 500 g ai/ha, 0 to 100 scale, 0 is no effect, 100 is complete control, read-out: Corn plant response rating): 80%
- pest or weed control at 125 g/ha ([3]; 125 g ai/ha, visual injury vs untreated controls after approx. 10 d, 0 = no effect, 100 = complete control, read-out: Foxtail, Giant plant response rating (0 to 100 scale)): 90%
- pest or weed control at 500 g/ha ([3]; 500 g ai/ha, 0 to 100 scale, 0 is no effect, 100 is complete control, read-out: Foxtail, Giant plant response rating): 90%
- pest or weed control at 125 g/ha ([4]; 125 g ai/ha, visual injury vs untreated controls after approx. 10 d, 0 = no effect, 100 = complete control, read-out: Ragweed plant response rating (0 to 100 scale)): 20%
- pest or weed control at 500 g/ha ([4]; 500 g ai/ha, 0 to 100 scale, 0 is no effect, 100 is complete control, read-out: Ragweed plant response rating): 60%
- pest or weed control at 125 g/ha ([5]; 125 g ai/ha, visual injury vs untreated controls after approx. 10 d, 0 = no effect, 100 = complete control, read-out: Kochia plant response rating (0 to 100 scale)): 80%
- pest or weed control at 500 g/ha ([5]; 500 g ai/ha, 0 to 100 scale, 0 is no effect, 100 is complete control, read-out: Kochia plant response rating): 80%
- pest or weed control at 125 g/ha ([6]; 125 g ai/ha, visual injury vs untreated controls after approx. 10 d, 0 = no effect, 100 = complete control, read-out: Galium plant response rating (0 to 100 scale)): 50%
- pest or weed control at 500 g/ha ([6]; 500 g ai/ha, 0 to 100 scale, 0 is no effect, 100 is complete control, read-out: Galium plant response rating): 60%
- plant injury at 125 g/ha ([7]; 125 g ai/ha, visual injury vs untreated controls after approx. 10 d, 0 = no effect, 100 = complete control, read-out: Wheat plant response rating (0 to 100 scale)): 60%
- plant injury at 500 g/ha ([7]; 500 g ai/ha, 0 to 100 scale, 0 is no effect, 100 is complete control, read-out: Wheat plant response rating): 70%
- pest or weed control at 125 g/ha ([8]; 125 g ai/ha, visual injury vs untreated controls after approx. 10 d, 0 = no effect, 100 = complete control, read-out: Pigweed plant response rating (0 to 100 scale)): 70%
- pest or weed control at 500 g/ha ([8]; 500 g ai/ha, 0 to 100 scale, 0 is no effect, 100 is complete control, read-out: Pigweed plant response rating): 80%
- pest or weed control at 125 g/ha [9, 15]: 70%
- pest or weed control at 500 g/ha ([9]; 500 g ai/ha): 90%
- pest or weed control at 125 g/ha [10, 15]: 90%
- pest or weed control at 500 g/ha ([10]; 500 g ai/ha): 90%
- pest or weed control at 125 g/ha [11, 15]: 90%
- pest or weed control at 500 g/ha ([11]; 500 g ai/ha): 90%
- pest or weed control at 125 g/ha [12, 15]: 90%
- pest or weed control at 500 g/ha ([12]; 500 g ai/ha): 90%
- pest or weed control at 125 g/ha [13, 15]: 80%
- pest or weed control at 500 g/ha ([13]; 500 g ai/ha): 80%
- pest or weed control at 125 g/ha [14, 15]: 70%
- pest or weed control at 500 g/ha ([14]; 500 g ai/ha): 100%
